In ChEMBL document CHEMBL6134868, “Novel Aryl Sulfonium Modification on Vancomycin to Tackle MRSA and VRE In Vitro and In Vivo through Dual Enhanced Cell-Wall and Membrane Inhibition” (J Med Chem, 2025):
Converted amounts (≈) assume the structure as drawn. Positions of bridges follow the written chain, without caps; N, C: chain ends. Non-standard residues stand in square brackets, D forms with d. Residues, ends and D or L forms follow the SMILES beside them. *: point of attachment. X1 = CC[C@H](C)CCCCC(=O)*; Dab = NCC[C@H](N)C(=O)O

Tests used:
Format in all cases: functional
Conditions in all cases: time 16-24 hrs
Staphylococcus aureus [1] = test: Antibacterial activity against methicillin-resistant Staphylococcus aureus USA300 LAC incubated for 16 to 24 hrs by broth microdilution assay
Acinetobacter baumannii [2] = test: Antibacterial activity against carbapenem-resistant Acinetobacter baumannii CRAB-1 clinical isolate incubated for 16 to 24 hrs by broth microdilution assay
Enterococcus faecium [3] = test: Antibacterial activity against vancomycin-resistant Enterococcus faecium Efm-HS-vb02 harboring VanB phenotype incubated for 16 to 24 hrs by broth microdilution assay
Enterococcus faecium [4] = test: Antibacterial activity against vancomycin-resistant Enterococcus faecium Efm-HS-08257 harboring VanM phenotype incubated for 16 to 24 hrs by broth microdilution assay
Enterococcus faecium [5] = test: Antibacterial activity against vancomycin-resistant Enterococcus faecium Efm-HS-vb01 harboring VanB phenotype incubated for 16 to 24 hrs by broth microdilution assay
Pseudomonas aeruginosa = test: Antibacterial activity against Pseudomonas aeruginosa PAO1 incubated for 16 to 24 hrs by broth microdilution assay
Enterococcus faecium [6] = test: Antibacterial activity against vancomycin-resistant Enterococcus faecium Efm-HS-0649 harboring VanA phenotype incubated for 16 to 24 hrs by broth microdilution assay
Staphylococcus aureus [7] = test: Antibacterial activity against vancomycin-intermediate Staphylococcus aureus Mu50 incubated for 16 to 24 hrs by broth microdilution assay
Escherichia coli = test: Antibacterial activity against Escherichia coli AB1157 incubated for 16 to 24 hrs by broth microdilution assay
Acinetobacter baumannii [8] = test: Antibacterial activity against Acinetobacter baumannii ATCC19606 incubated for 16 to 24 hrs by broth microdilution assay
Klebsiella pneumoniae = test: Antibacterial activity against Klebsiella pneumoniae KP-1 incubated for 16 to 24 hrs by broth microdilution assay

SMILES | MIC (Staphylococcus aureus [1]) | MIC (Acinetobacter baumannii [2]) | MIC (Enterococcus faecium [3]) | MIC (Enterococcus faecium [4]) | MIC (Enterococcus faecium [5]) | MIC (Pseudomonas aeruginosa) | MIC (Enterococcus faecium [6]) | MIC (Staphylococcus aureus [7]) | MIC (Escherichia coli) | MIC (Acinetobacter baumannii [8]) | MIC (Klebsiella pneumoniae)
CN[C@H](CC(C)C)C(=O)N[C@H]1C(=O)N[C@@H](CC(N)=O)C(=O)N[C@H]2C(=O)N[C@H]3C(=O)N[C@H](C(=O)N[C@H](C(=O)NCCC[S+](C)C[C@H](O)COc4ccccc4)c4cc(O)cc(O)c4-c4cc3ccc4O)[C@H](O)c3ccc(c(Cl)c3)Oc3cc2cc(c3O[C@@H]2O[C@H](CO)[C@@H](O)[C@H](O)[C@H]2O[C@H]2C[C@](C)(N)[C@H](O)[C@H](C)O2)Oc2ccc(cc2Cl)[C@H]1O.O=C([O-])C(F)(F)F (stereo not given in full) | 0.25 µg/mL | > 128 µg/mL | 4 µg/mL | 16 µg/mL | 16 µg/mL | 128 µg/mL | 32 µg/mL | 1 µg/mL | 16 µg/mL | 64 µg/mL | > 128 µg/mL
CC(C)C[C@H](C(=O)N[C@H]1C(=O)N[C@@H](CC(N)=O)C(=O)N[C@H]2C(=O)N[C@H]3C(=O)N[C@H](C(=O)N[C@H](C(=O)O)c4cc(O)cc(O)c4-c4cc3ccc4O)[C@H](O)c3ccc(c(Cl)c3)Oc3cc2cc(c3O[C@@H]2O[C@H](CO)[C@@H](O)[C@H](O)[C@H]2O[C@H]2C[C@](C)(N)[C@H](O)[C@H](C)O2)Oc2ccc(cc2Cl)[C@H]1O)N(C)CCC[S+](C)CC(O)COc1ccccc1.O=C([O-])C(F)(F)F (stereo not given in full) | 2 µg/mL | > 128 µg/mL | 32 µg/mL | 128 µg/mL | 64 µg/mL | > 128 µg/mL | > 128 µg/mL | 8 µg/mL | > 128 µg/mL | > 128 µg/mL | > 128 µg/mL
CC(=O)NC[C@H]1CN(c2ccc(N3CCOCC3)c(F)c2)C(=O)O1 [LINEZOLID] | 1 µg/mL (≈ 2.96 µM) | 128 µg/mL (≈ 379 µM) | 2 µg/mL (≈ 5.93 µM) | 2 µg/mL (≈ 5.93 µM) | 2 µg/mL (≈ 5.93 µM) | 128 µg/mL (≈ 379 µM) | 1 µg/mL (≈ 2.96 µM) | – | 128 µg/mL (≈ 379 µM) | 128 µg/mL (≈ 379 µM) | > 128 µg/mL
C[C@@H](O)[C@H]1C(=O)N2C(C(=O)O)=C(S[C@@H]3CN[C@H](C(=O)N(C)C)C3)[C@H](C)[C@H]12 [MEROPENEM] | – | > 128 µg/mL | – | – | – | – | – | – | – | 2 µg/mL (≈ 5.22 µM) | –
CCCCCCCCCC(=O)N[C@@H](Cc1c[nH]c2ccccc12)C(=O)N[C@@H](CC(N)=O)C(=O)N[C@@H](CC(=O)O)C(=O)N[C@@H]1C(=O)NCC(=O)N[C@@H](CCCN)C(=O)N[C@@H](CC(=O)O)C(=O)N[C@H](C)C(=O)N[C@@H](CC(=O)O)C(=O)NCC(=O)N[C@H](CO)C(=O)N[C@@H]([C@@H](C)CC(=O)O)C(=O)N[C@@H](CC(=O)c2ccccc2N)C(=O)O[C@@H]1C | 1 µg/mL (≈ 0.617 µM) | – | 4 µg/mL (≈ 2.47 µM) | 8 µg/mL (≈ 4.94 µM) | 8 µg/mL (≈ 4.94 µM) | – | 8 µg/mL (≈ 4.94 µM) | 4 µg/mL (≈ 2.47 µM) | – | – | –
CC(C)CCCCC(=O)N[C@@H](CCN)C(=O)N[C@H](C(=O)N[C@@H](CCN)C(=O)N[C@H]1CCNC(=O)[C@H]([C@@H](C)O)NC(=O)[C@H](CCN)NC(=O)[C@H](CCN)NC(=O)[C@H](CC(C)C)NC(=O)[C@@H](Cc2ccccc2)NC(=O)[C@H](CCN)NC1=O)[C@@H](C)O.CC[C@H](C)CCCCC(=O)N[C@@H](CCN)C(=O)N[C@H](C(=O)N[C@@H](CCN)C(=O)N[C@H]1CCNC(=O)[C@H]([C@@H](C)O)NC(=O)[C@H](CCN)NC(=O)[C@H](CCN)NC(=O)[C@H](CC(C)C)NC(=O)[C@@H](Cc2ccccc2)NC(=O)[C@H](CCN)NC1=O)[C@@H](C)O (X1-[Dab]T[Dab][Dab][Dab][dF]L[Dab][Dab]T; lactam 4-C) | – | 0.125 µg/mL | – | – | – | 0.5 µg/mL | – | – | 0.125 µg/mL | 0.125 µg/mL | ≤ 0.063 µg/mL
